Where a SMILES comes first, the peptide text is derived from it. Bridges are numbered along the chain shown (N, C = ends). [ ]: non-standard residue; d: D form. tBuAla = CC(C)(C)C[C@H](N)C(=O)O; Nva = CCC[C@H](N)C(=O)O; Abu = CC[C@H](N)C(=O)O
Experiments:
endothelin receptor = experiment: Assay of affinity for receptor (I125-ET-1 binding to porcine myocardial membrane fraction); details: ET-1 = 100
Method: A membrane fraction prepared from the porcine heart was diluted to 0.15 mg/ml by using a buffer solution [PBS (pH 7.4) containing 0.5 mM CaCl2, 1.0 mM MgCl2, 0.02% NaN3, 0.1% BSA (fraction V, Sigma), 0.1 mM PMSF and 0.1 μg/ml pepstatin (binding buffer)] for assay, and 100 μl of the resulting suspension of the membrane fraction was poured into each assay tube to use for assay. To this suspension of the membrane fraction were added 2 μl of an endothelin-1 solution labeled with 5 μM radioactive iodine. Further, 3 μl of a test peptide solution was added thereto, followed by maintenance at a temperature of 25° C. for 1 hour. Then, the resulting suspension was diluted with 900 μl of the buffer solution for assay cooled with ice, and thereafter separated into a supernatant and a precipitate by centrifugation at 12,000×g for 10 minutes. Cell membranes and an endothelin receptor embedded therein were contained in the precipitate, and radioactive iodine-labeled endothelin combined with the receptor was also recovered in the precipitate. Accordingly, the amount of radioactive iodine-labeled endothelin combined with the endothelin receptor was determined by measuring the amount of radioactive iodine contained in the precipitate with a gamma-ray counter. Compounds in which the affinity for the endothelin receptor is high and the maximum constriction is not high are antagonists. Contrary to this, compounds in which the affinity for the endothelin receptor is high and the maximum constriction is high are agonists.

porcine coronary artery = assay type: cell-based; details: for Constrictor activity (Relative potency): ET-1 = 100; for Maximum Constriction (% 60 mM KCl): normalized to constriction response to 60 mM KCl
Method: Each of helical strips 2 mm×15 mm prepared from the coronary right ramus circumflexus from which the adventitial connective tissues and the endothelial cells were removed was set to each of 4 ml organ baths. Its tension was detected by a force displacement transducer UL-10GR (Minebea), and recorded by a polygraph (NEC Sanei). The organ baths were maintained at 37° C., and filled with a Krebs-Henseleit solution (composition:118 mM NaCl, 4.7 mM KCl, 2.5 mM CaCl2, 1.2 mM KH2 PO4, 25.0 mM NaHCO3, 1.2 mM MgSO4, 10.0 mM glucose) gassed with 95% O2 and 5% CO2.
A tension of 1.25 to 1.5 g was applied to each of the strips, followed by equilibration for 1.5 hours. 60 mM KCl was repeatedly applied thereto at intervals of 30 minutes until the constriction response became constant. After additional equilibration for 1.5 hours, a sample for assay was given. The constriction of the strips was normalized by the constriction response of the individual strips to 60 mM KCl and statistically processed.
(2) As to the antagonist property or the agonist property of the peptide derivatives of present invention to endothelin, the affinity for an endothelin receptor and the constrictor activity to porcine coronary smooth muscles (according to the method described in (1) described above) were assayed. The affinity for the receptor was assayed by the following method.

Compound | Receptor binding activity (Relative potency) (endothelin receptor) | Constrictor activity (Relative potency) (porcine coronary artery) | Maximum Constriction (% 60 mM KCl) (porcine coronary artery)
CC[C@H](NC(=O)[C@H](CC(C)C)NC(=O)[C@H](Cc1c[nH]cn1)NC(=O)[C@@H]1CSSC[C@H](N)C(=O)N[C@@H](CO)C(=O)N[C@H]2CSSC[C@H](NC(=O)[C@H](CCC(=O)O)NC(=O)[C@H](CCCCN)NC(=O)[C@H](CC(=O)O)NC(=O)[C@H](CCSC)NC(=O)[C@H](CC(C)C)NC(=O)[C@H](CO)NC(=O)[C@H](CO)NC2=O)C(=O)N[C@@H](C(C)C)C(=O)N[C@@H](Cc2ccc(O)cc2)C(=O)N[C@@H](Cc2ccccc2)C(=O)N1)C(=O)N[C@H](C(=O)N[C@H](C(=O)N[C@@H](Cc1c[nH]c2ccccc12)C(=O)O)[C@@H](C)CC)[C@@H](C)CC [Example 30, [Abu^18]-ET-1] (H-CSCSSLMDKECVYFCHL[Abu]IIW-OH; disulfide 1-15, 3-11) | 5.0 | < 0.1 | 6
CCC[C@H](NC(=O)[C@H](CC(C)C)NC(=O)[C@H](Cc1c[nH]cn1)NC(=O)[C@@H]1CSSC[C@H](N)C(=O)N[C@@H](CO)C(=O)N[C@H]2CSSC[C@H](NC(=O)[C@H](CCC(=O)O)NC(=O)[C@H](CCCCN)NC(=O)[C@H](CC(=O)O)NC(=O)[C@H](CCSC)NC(=O)[C@H](CC(C)C)NC(=O)[C@H](CO)NC(=O)[C@H](CO)NC2=O)C(=O)N[C@@H](C(C)C)C(=O)N[C@@H](Cc2ccc(O)cc2)C(=O)N[C@@H](Cc2ccccc2)C(=O)N1)C(=O)N[C@H](C(=O)N[C@H](C(=O)N[C@@H](Cc1c[nH]c2ccccc12)C(=O)O)[C@@H](C)CC)[C@@H](C)CC [Example 31, [Nva^18]-ET-1] (H-CSCSSLMDKECVYFCHL[Nva]IIW-OH; disulfide 1-15, 3-11) | 2.4 | < 0.1 | 2
CC[C@H](C)[C@H](NC(=O)[C@H](Cc1ccccc1)NC(=O)[C@H](CC(C)C)NC(=O)[C@H](Cc1c[nH]cn1)NC(=O)[C@@H]1CSSC[C@H](N)C(=O)N[C@@H](CO)C(=O)N[C@H]2CSSC[C@H](NC(=O)[C@H](CCC(=O)O)NC(=O)[C@H](CCCCN)NC(=O)[C@H](CC(=O)O)NC(=O)[C@H](CCSC)NC(=O)[C@H](CC(C)C)NC(=O)[C@H](CO)NC(=O)[C@H](CO)NC2=O)C(=O)N[C@@H](C(C)C)C(=O)N[C@@H](Cc2ccc(O)cc2)C(=O)N[C@@H](Cc2ccccc2)C(=O)N1)C(=O)N[C@H](C(=O)N[C@@H](Cc1c[nH]c2ccccc12)C(=O)O)[C@@H](C)CC [Example 33, [Phe^18]-ET-1] (H-CSCSSLMDKECVYFCHLFIIW-OH; disulfide 1-15, 3-11) | 2.4 | < 0.1 | 0
CC[C@H](C)[C@H](NC(=O)[C@H](CO)NC(=O)[C@H](CC(C)C)NC(=O)[C@H](Cc1c[nH]cn1)NC(=O)[C@@H]1CSSC[C@H](N)C(=O)N[C@@H](CO)C(=O)N[C@H]2CSSC[C@H](NC(=O)[C@H](CCC(=O)O)NC(=O)[C@H](CCCCN)NC(=O)[C@H](CC(=O)O)NC(=O)[C@H](CCSC)NC(=O)[C@H](CC(C)C)NC(=O)[C@H](CO)NC(=O)[C@H](CO)NC2=O)C(=O)N[C@@H](C(C)C)C(=O)N[C@@H](Cc2ccc(O)cc2)C(=O)N[C@@H](Cc2ccccc2)C(=O)N1)C(=O)N[C@H](C(=O)N[C@@H](Cc1c[nH]c2ccccc12)C(=O)O)[C@@H](C)CC [Example 34, [Ser^18]-ET-1] (H-CSCSSLMDKECVYFCHLSIIW-OH; disulfide 1-15, 3-11) | 20.9 | 18 | 79
CC[C@H](C)[C@H](NC(=O)[C@H](CC(=O)O)NC(=O)[C@H](CC(C)C)NC(=O)[C@H](Cc1c[nH]cn1)NC(=O)[C@@H]1CSSC[C@H](N)C(=O)N[C@@H](CO)C(=O)N[C@@H](CC(C)C)C(=O)N[C@@H](CO)C(=O)N[C@@H](CO)C(=O)N[C@@H](CC(C)C)C(=O)N[C@@H](CCSC)C(=O)N[C@@H](CC(=O)O)C(=O)N[C@@H](CCCCN)C(=O)N[C@@H](CCC(=O)O)C(=O)N[C@@H](CC(C)C)C(=O)N[C@@H](C(C)C)C(=O)N[C@@H](Cc2ccc(O)cc2)C(=O)N[C@@H](Cc2ccccc2)C(=O)N1)C(=O)N[C@H](C(=O)N[C@@H](Cc1c[nH]c2ccccc12)C(=O)O)[C@@H](C)CC [Example 38, [Leu^3,11]-ET-1] (H-CSLSSLMDKELVYFCHLDIIW-OH; disulfide 1-15) | 0.1 | < 0.1 | 10
CC[C@H](C)[C@H](NC(=O)[C@H](CC(=O)O)NC(=O)[C@H](CC(C)C)NC(=O)[C@H](Cc1c[nH]cn1)NC(=O)[C@@H]1CSSC[C@H](N)C(=O)N[C@@H](CO)C(=O)N[C@@H](C(C)C)C(=O)N[C@@H](CO)C(=O)N[C@@H](CO)C(=O)N[C@@H](CC(C)C)C(=O)N[C@@H](CCSC)C(=O)N[C@@H](CC(=O)O)C(=O)N[C@@H](CCCCN)C(=O)N[C@@H](CCC(=O)O)C(=O)N[C@@H](C(C)C)C(=O)N[C@@H](C(C)C)C(=O)N[C@@H](Cc2ccc(O)cc2)C(=O)N[C@@H](Cc2ccccc2)C(=O)N1)C(=O)N[C@H](C(=O)N[C@@H](Cc1c[nH]c2ccccc12)C(=O)O)[C@@H](C)CC [Example 39, [Val^3,11]-ET-1] (H-CSVSSLMDKEVVYFCHLDIIW-OH; disulfide 1-15) | 0.59 | < 0.1 | 34
CC[C@H](C)[C@H](NC(=O)[C@H](CC(C)C)NC(=O)[C@H](Cc1c[nH]cn1)NC(=O)[C@@H]1CSSC[C@H](N)C(=O)N[C@@H](CO)C(=O)N[C@H]2CSSC[C@H](NC(=O)[C@H](CCC(=O)O)NC(=O)[C@H](CCCCN)NC(=O)[C@H](CC(=O)O)NC(=O)[C@H](CCSC)NC(=O)[C@H](CC(C)C)NC(=O)[C@H](CO)NC(=O)[C@H](CO)NC2=O)C(=O)N[C@@H](C(C)C)C(=O)N[C@@H](Cc2ccc(O)cc2)C(=O)N[C@@H](Cc2ccccc2)C(=O)N1)C(=O)N[C@H](C(=O)N[C@H](C(=O)N[C@@H](Cc1c[nH]c2ccccc12)C(=O)O)[C@@H](C)CC)[C@@H](C)CC [Example 43, [Ile^18]-ET-1] (H-CSCSSLMDKECVYFCHLIIIW-OH; disulfide 1-15, 3-11) | 3.2 | < 0.1 | 0
CC[C@H](C)[C@H](NC(=O)[C@H](CC(C)(C)C)NC(=O)[C@H](CC(C)C)NC(=O)[C@H](Cc1c[nH]cn1)NC(=O)[C@@H]1CSSC[C@H](N)C(=O)N[C@@H](CO)C(=O)N[C@H]2CSSC[C@H](NC(=O)[C@H](CCC(=O)O)NC(=O)[C@H](CCCCN)NC(=O)[C@H](CC(=O)O)NC(=O)[C@H](CCSC)NC(=O)[C@H](CC(C)C)NC(=O)[C@H](CO)NC(=O)[C@H](CO)NC2=O)C(=O)N[C@@H](C(C)C)C(=O)N[C@@H](Cc2ccc(O)cc2)C(=O)N[C@@H](Cc2ccccc2)C(=O)N1)C(=O)N[C@H](C(=O)N[C@@H](Cc1c[nH]c2ccccc12)C(=O)O)[C@@H](C)CC [Example 45, [γ-Leu^18]-ET-1] (H-CSCSSLMDKECVYFCHL[tBuAla]IIW-OH; disulfide 1-15, 3-11) | 1.0 | < 0.1 | 3
CC[C@H](C)[C@H](NC(=O)[C@H](CCC(=O)O)NC(=O)[C@H](CC(C)C)NC(=O)[C@H](Cc1c[nH]cn1)NC(=O)[C@@H]1CSSC[C@H](N)C(=O)N[C@@H](CO)C(=O)N[C@H]2CSSC[C@H](NC(=O)[C@H](CCC(=O)O)NC(=O)[C@H](CCCCN)NC(=O)[C@H](CC(=O)O)NC(=O)[C@H](CCSC)NC(=O)[C@H](CC(C)C)NC(=O)[C@H](CO)NC(=O)[C@H](CO)NC2=O)C(=O)N[C@@H](C(C)C)C(=O)N[C@@H](Cc2ccc(O)cc2)C(=O)N[C@@H](Cc2ccccc2)C(=O)N1)C(=O)N[C@H](C(=O)N[C@@H](Cc1c[nH]c2ccccc12)C(=O)O)[C@@H](C)CC [Example 46, [Glu^18]-ET-1] (H-CSCSSLMDKECVYFCHLEIIW-OH; disulfide 1-15, 3-11) | 3.2 | < 0.1 | 6
